Assay results: patent USRE39591E1, “6-O-substituted ketolides having antibacterial activity” (Abbott Laboratories, priority 1996, dated 2007)
≈ marks a conversion by molar mass, not a printed value.

System: up to 32 different microorganisms
Assay: in vitro antibacterial activity (MIC), agar dilution on Brain Heart Infusion (BHI) agar with Steers replicator
Type: cell-based
Conditions: unit assumed
Outline: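 Twelve plates carried successive aqueous dilutions of test compound in BHI agar; inocula were 1:100 dilutions (1:10 for slow growers such as Micrococcus, Streptococcus), incubated 35°-37° C for 20 to 24 hours. MIC was the lowest concentration giving no growth, slight haze, or sparse isolated colonies versus growth control.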

Question: For CCC1OC(=O)C(C)C(=O)C(C)C(OC2OC(C)CC(N(C)C)C2O)C(C)(OCC=Cc2ccc3ccccc3c2)CC(C)C(=O)C(C)C2NC(=O)OC12C (stereo not drawn) [Example 186, R is —CH2CH═CH-(2-naphthyl)], which MIC (Candida albicans CCH 442 (code TT)) is on record?
Answer: > 100 µg/mL

Question: And the MIC (Enterococcus faecism ATCC 8043 (code II))?
Answer: 0.05 µg/mL (≈ 0.0654 µM)

Question: What about the MIC (Escherichia coli DC-2 (code SS)) of the same compound?
Answer: > 100 µg/mL

Question: And the MIC (Escherichia coli JUHL (code QQ))?
Answer: > 100 µg/mL

Question: What about the MIC (Escherichia coli SS (code RR)) of the same compound?
Answer: 0.39 µg/mL (≈ 0.51 µM)

Question: And the MIC (Haemophilis influenzae DILL AMP R (code WW))?
Answer: 16 µg/mL (≈ 20.9 µM)

Question: What about the MIC (Micrococcus luteus ATCC 4698 (code PP)) of the same compound?
Answer: 0.1 µg/mL (≈ 0.131 µM)

Question: What about the MIC (Micrococcus luteus ATCC 9341 (code OO)) of the same compound?
Answer: < 0.005 µg/mL

Question: And the MIC (Mycobacterium smegmatis ATCC 114 (code UU))?
Answer: 0.2 µg/mL (≈ 0.261 µM)

Question: And the MIC (Nocardia Asteroides ATCC9970 (code VV))?
Answer: 0.1 µg/mL (≈ 0.131 µM)

Question: And the MIC (Staphylococcus aureus 1775 (code GG))?
Answer: > 100 µg/mL

Question: And the MIC (Staphylococcus aureus A5177 (code BB))?
Answer: 0.01 µg/mL (≈ 0.0131 µM)

Question: What about the MIC (Staphylococcus aureus A-5278 (code CC)) of the same compound?
Answer: > 100 µg/mL

Question: And the MIC (Staphylococcus aureus ATCC 6538P (code AA))?
Answer: 0.1 µg/mL (≈ 0.131 µM)

Question: And the MIC (Staphylococcus aureus CMX 553 (code FF))?
Answer: 0.01 µg/mL (≈ 0.0131 µM)

Question: And the MIC (Staphylococcus aureus CMX 642A (code DD))?
Answer: 0.1 µg/mL (≈ 0.131 µM)

Question: And the MIC (Staphylococcus aureus NCTC10649M (code EE))?
Answer: 0.1 µg/mL (≈ 0.131 µM)

Question: And the MIC (Staphylococcus epidermidis 3519 (code HH))?
Answer: 0.1 µg/mL (≈ 0.131 µM)

Question: And the MIC (Streptococcus Pneumonia 5649 (code ZZA))?
Answer: 1 µg/mL (≈ 1.31 µM)

Question: And the MIC (Streptococcus Pneumonia 5979 (code ZZ))?
Answer: > 128 µg/mL

Question: And the MIC (Streptococcus Pneumonia ATCC6303 (code XX))?
Answer: 0.03 µg/mL (≈ 0.0392 µM)

Question: What about the MIC (Streptococcus Pneumonia GYR 1171 (code YY)) of the same compound?
Answer: 0.015 µg/mL (≈ 0.0196 µM)

Question: What about the MIC (Streptococcus agalactiae CMX 508 (code KK)) of the same compound?
Answer: 0.01 µg/mL (≈ 0.0131 µM)

Question: And the MIC (Streptococcus bovis A-5169 (code JJ))?
Answer: ≤ 0.005 µg/mL

Question: And the MIC (Streptococcus pyogenes 930 (code MM))?
Answer: 3.1 µg/mL (≈ 4.05 µM)

Question: What about the MIC (Streptococcus pyogenes EES61 (code LL)) of the same compound?
Answer: 0.01 µg/mL (≈ 0.0131 µM)

Question: What about the MIC (Streptococcus pyogenes PIU 2548 (code NN)) of the same compound?
Answer: 0.1 µg/mL (≈ 0.131 µM)

Question: For CC[C@H]1OC(=O)[C@H](C)C(=O)[C@H](C)[C@@H](O[C@@H]2O[C@H](C)C[C@H](N(C)C)[C@H]2O)[C@@](C)(OCCNCCCCc2ccccc2)C[C@@H](C)C(=O)[C@H](C)[C@H]2NC(=O)O[C@@]21C [Example 224], which MIC (organism code AA) is on record?
Answer: 0.39 µg/mL (≈ 0.504 µM)

Question: And the MIC (organism code BB)?
Answer: 0.2 µg/mL (≈ 0.258 µM)

Question: And the MIC (organism code CC)?
Answer: > 100 µg/mL

Question: And the MIC (organism code DD)?
Answer: 0.2 µg/mL (≈ 0.258 µM)

Question: And the MIC (organism code EE)?
Answer: 0.2 µg/mL (≈ 0.258 µM)

Question: And the MIC (organism code FF)?
Answer: 0.2 µg/mL (≈ 0.258 µM)

Question: And the MIC (organism code GG)?
Answer: > 100 µg/mL

Question: And the MIC (organism code HH)?
Answer: 0.39 µg/mL (≈ 0.504 µM)

Question: And the MIC (organism code II)?
Answer: 0.01 µg/mL (≈ 0.0129 µM)

Question: And the MIC (organism code JJ)?
Answer: 0.01 µg/mL (≈ 0.0129 µM)

Question: And the MIC (organism code KK)?
Answer: ≤ 0.005 µg/mL

Question: And the MIC (organism code LL)?
Answer: 0.01 µg/mL (≈ 0.0129 µM)

Question: What about the MIC (organism code MM) of the same compound?
Answer: > 100 µg/mL

Question: And the MIC (organism code NN)?
Answer: 0.2 µg/mL (≈ 0.258 µM)

Question: And the MIC (organism code OO)?
Answer: 0.02 µg/mL (≈ 0.0258 µM)

Question: And the MIC (organism code PP)?
Answer: 0.2 µg/mL (≈ 0.258 µM)

Question: And the MIC (organism code QQ)?
Answer: 25 µg/mL (≈ 32.3 µM)

Question: What about the MIC (organism code RR) of the same compound?
Answer: 0.2 µg/mL (≈ 0.258 µM)

Question: What about the MIC (organism code SS) of the same compound?
Answer: 25 µg/mL (≈ 32.3 µM)

Question: What about the MIC (organism code TT) of the same compound?
Answer: > 100 µg/mL

Question: And the MIC (organism code UU)?
Answer: 3.1 µg/mL (≈ 4.01 µM)

Question: And the MIC (organism code VV)?
Answer: 0.1 µg/mL (≈ 0.129 µM)

Question: What about the MIC (organism code WW) of the same compound?
Answer: 4 µg/mL (≈ 5.17 µM)

Question: And the MIC (organism code XX)?
Answer: 0.03 µg/mL (≈ 0.0388 µM)

Question: What about the MIC (organism code YY) of the same compound?
Answer: 0.03 µg/mL (≈ 0.0388 µM)

Question: What about the MIC (organism code ZZ) of the same compound?
Answer: > 128 µg/mL

Question: And the MIC (organism code ZZA)?
Answer: 2 µg/mL (≈ 2.58 µM)

Question: How did the MIC (organism code AA) turn out when CC[C@H]1OC(=O)[C@H](C)C(=O)[C@H](C)[C@@H](O[C@@H]2O[C@H](C)C[C@H](N(C)C)[C@H]2O)[C@@](C)(OCC#Cc2ccccc2)C[C@@H](C)C(=O)[C@H](C)[C@H]2NC(=O)O[C@@]21C [Example 249, Compound of Formula (IX): L is CO, T is NH, R is —CH2—C≡C-phenyl] was run?
Answer: 0.1 µg/mL

Question: What about the MIC (organism code BB) of the same compound?
Answer: 0.1 µg/mL

Question: What about the MIC (organism code CC) of the same compound?
Answer: > 100 µg/mL

Question: What about the MIC (organism code DD) of the same compound?
Answer: 0.2 µg/mL

Question: And the MIC (organism code EE)?
Answer: 0.2 µg/mL

Question: What about the MIC (organism code FF) of the same compound?
Answer: 0.1 µg/mL

Question: What about the MIC (organism code GG) of the same compound?
Answer: > 100 µg/mL

Question: What about the MIC (organism code HH) of the same compound?
Answer: 0.1 µg/mL

Question: What about the MIC (organism code II) of the same compound?
Answer: 0.05 µg/mL

Question: What about the MIC (organism code JJ) of the same compound?
Answer: 0.01 µg/mL

Question: And the MIC (organism code KK)?
Answer: 0.02 µg/mL

Question: What about the MIC (organism code LL) of the same compound?
Answer: 0.02 µg/mL

Question: What about the MIC (organism code MM) of the same compound?
Answer: 100 µg/mL

Question: And the MIC (organism code NN)?
Answer: 0.1 µg/mL

Question: What about the MIC (organism code OO) of the same compound?
Answer: 0.01 µg/mL

Question: What about the MIC (organism code PP) of the same compound?
Answer: 0.1 µg/mL

Question: And the MIC (organism code QQ)?
Answer: 100 µg/mL

Question: And the MIC (organism code RR)?
Answer: 0.39 µg/mL

Question: And the MIC (organism code SS)?
Answer: > 100 µg/mL

Question: And the MIC (organism code TT)?
Answer: > 100 µg/mL

Question: And the MIC (organism code UU)?
Answer: 0.39 µg/mL

Question: What about the MIC (organism code VV) of the same compound?
Answer: 0.1 µg/mL

Question: What about the MIC (organism code WW) of the same compound?
Answer: 4 µg/mL

Question: What about the MIC (organism code XX) of the same compound?
Answer: 0.03 µg/mL

Question: And the MIC (organism code YY)?
Answer: 0.03 µg/mL

Question: And the MIC (organism code ZZ)?
Answer: > 128 µg/mL

Question: What about the MIC (organism code ZZA) of the same compound?
Answer: 0.25 µg/mL

Question: For CCC1OC(=O)C(C)C(=O)C(C)C(OC2OC(C)CC(N(C)C)C2O)C(C)(OCC=Cc2cnc3ccc(N)cc3c2)CC(C)C(=O)C(C)C2NC(=O)OC12C (stereo not drawn) [Example 201, R is —CH2CH═CH-(6-amino-3-quinolyl)], which MIC (organism code AA) is on record?
Answer: 0.1 µg/mL (≈ 0.128 µM)

Question: And the MIC (organism code BB)?
Answer: 0.1 µg/mL (≈ 0.128 µM)

Question: And the MIC (organism code CC)?
Answer: > 100 µg/mL

Question: And the MIC (organism code DD)?
Answer: 0.1 µg/mL (≈ 0.128 µM)

Question: And the MIC (organism code EE)?
Answer: 0.1 µg/mL (≈ 0.128 µM)

Question: What about the MIC (organism code FF) of the same compound?
Answer: 0.1 µg/mL (≈ 0.128 µM)

Question: What about the MIC (organism code GG) of the same compound?
Answer: > 100 µg/mL

Question: What about the MIC (organism code HH) of the same compound?
Answer: 0.01 µg/mL (≈ 0.0128 µM)

Question: And the MIC (organism code II)?
Answer: 0.01 µg/mL (≈ 0.0128 µM)

Question: What about the MIC (organism code JJ) of the same compound?
Answer: 0.01 µg/mL (≈ 0.0128 µM)

Question: And the MIC (organism code KK)?
Answer: 0.01 µg/mL (≈ 0.0128 µM)

Question: What about the MIC (organism code LL) of the same compound?
Answer: 0.01 µg/mL (≈ 0.0128 µM)

Question: And the MIC (organism code MM)?
Answer: 1.56 µg/mL (≈ 2 µM)

Question: What about the MIC (organism code NN) of the same compound?
Answer: 0.2 µg/mL (≈ 0.256 µM)

Question: And the MIC (organism code OO)?
Answer: 0.05 µg/mL (≈ 0.064 µM)

Question: And the MIC (organism code PP)?
Answer: 0.1 µg/mL (≈ 0.128 µM)

Question: And the MIC (organism code QQ)?
Answer: 50 µg/mL (≈ 64 µM)

Question: What about the MIC (organism code RR) of the same compound?
Answer: 0.1 µg/mL (≈ 0.128 µM)

Question: What about the MIC (organism code SS) of the same compound?
Answer: 50 µg/mL (≈ 64 µM)

Question: What about the MIC (organism code TT) of the same compound?
Answer: > 100 µg/mL

Question: And the MIC (organism code UU)?
Answer: 6.2 µg/mL (≈ 7.94 µM)

Question: And the MIC (organism code VV)?
Answer: 0.2 µg/mL (≈ 0.256 µM)

Question: And the MIC (organism code WW)?
Answer: 2 µg/mL (≈ 2.56 µM)

Question: And the MIC (organism code XX)?
Answer: 0.03 µg/mL (≈ 0.0384 µM)

Question: And the MIC (organism code YY)?
Answer: 0.03 µg/mL (≈ 0.0384 µM)

Question: And the MIC (organism code ZZ)?
Answer: 16 µg/mL (≈ 20.5 µM)

Question: And the MIC (organism code ZZA)?
Answer: 1 µg/mL (≈ 1.28 µM)
